According to patent EP4624466A1, “DEGRADER FOR DECOMPOSING CMET PROTEIN, AND PHARMACEUTICAL COMPOSITION COMPRISING SAME” (Innocure Therapeutics, Inc., priority 2022, dated 2024):
Where two headings read alike, the source gives them in different places.

Tests used:
c-MET = c-MET (Homo sapiens, UniProt P08581); assay: c-MET protein degradation (Simple Western), MKN-45; type: cell-based; design: assess the resolution of the compound of the present invention for c-MET expressed in cells; endogenous in cells; host or cells: MKN45 (human gastric cancer); details: c-MET overexpressing gastric cancer cell line MKN-45, treated 24 hours
c-MET, sequence (P08581 25-1390): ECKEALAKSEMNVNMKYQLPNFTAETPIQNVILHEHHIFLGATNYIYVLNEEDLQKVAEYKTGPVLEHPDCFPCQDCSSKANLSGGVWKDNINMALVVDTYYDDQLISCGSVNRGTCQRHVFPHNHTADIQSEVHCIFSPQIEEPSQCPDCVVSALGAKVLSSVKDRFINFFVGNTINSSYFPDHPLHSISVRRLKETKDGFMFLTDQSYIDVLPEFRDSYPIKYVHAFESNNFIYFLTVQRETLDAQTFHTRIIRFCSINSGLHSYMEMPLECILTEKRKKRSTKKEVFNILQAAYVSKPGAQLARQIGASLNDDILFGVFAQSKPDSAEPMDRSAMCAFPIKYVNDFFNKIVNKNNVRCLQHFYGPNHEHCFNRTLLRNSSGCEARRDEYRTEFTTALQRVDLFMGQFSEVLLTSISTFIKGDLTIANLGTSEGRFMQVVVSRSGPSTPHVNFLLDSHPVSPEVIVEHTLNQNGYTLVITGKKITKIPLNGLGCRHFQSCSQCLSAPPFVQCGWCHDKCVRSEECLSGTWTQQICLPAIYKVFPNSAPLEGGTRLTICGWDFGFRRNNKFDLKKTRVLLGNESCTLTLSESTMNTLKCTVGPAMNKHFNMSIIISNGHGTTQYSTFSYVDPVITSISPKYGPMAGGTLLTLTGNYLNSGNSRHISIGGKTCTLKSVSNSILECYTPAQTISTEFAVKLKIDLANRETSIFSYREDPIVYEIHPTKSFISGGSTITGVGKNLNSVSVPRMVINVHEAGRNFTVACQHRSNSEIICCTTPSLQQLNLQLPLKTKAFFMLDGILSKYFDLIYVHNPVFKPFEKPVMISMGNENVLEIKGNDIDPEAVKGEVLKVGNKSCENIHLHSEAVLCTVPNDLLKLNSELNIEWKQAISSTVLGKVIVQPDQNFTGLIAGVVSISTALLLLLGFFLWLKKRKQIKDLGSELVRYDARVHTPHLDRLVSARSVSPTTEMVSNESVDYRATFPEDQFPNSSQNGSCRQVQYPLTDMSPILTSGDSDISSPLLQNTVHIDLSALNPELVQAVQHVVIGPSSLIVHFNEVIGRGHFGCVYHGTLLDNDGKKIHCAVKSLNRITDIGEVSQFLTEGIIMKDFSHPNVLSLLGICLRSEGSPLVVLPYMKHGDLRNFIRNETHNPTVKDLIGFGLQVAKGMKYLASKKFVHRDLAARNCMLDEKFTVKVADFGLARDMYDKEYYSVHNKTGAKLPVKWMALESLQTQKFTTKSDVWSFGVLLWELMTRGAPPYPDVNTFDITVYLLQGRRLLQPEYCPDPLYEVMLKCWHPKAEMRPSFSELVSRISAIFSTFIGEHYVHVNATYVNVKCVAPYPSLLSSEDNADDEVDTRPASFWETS
Method: In order to assess the resolution of the compound of the present invention for c-MET expressed in cells, cells were dispensed in a 12-well plate at a concentration of 2 × 10^5 cells/well, and then gastric cancer cell lines were treated with samples for 24 hours and lung cancer cell lines were treated for 48 hours. Cell lysates were collected using a scraper on ice, centrifuged at 4°C15,000 rpm for 30 min to obtain a protein-containing supernatant. Protein expression was then measured using the Simple Western Automated Western Blot System Abby instrument using 3 µg of protein for each sample. SDS and heat-induced denaturation proteins were separated by molecular weight, attached to capillary, reacted with anti-c-MET or anti-GAPDH antibodies, which are primary antibodies, and then reacted with HRP-conjugated secondary antibodies, and analyzed the protein expression signal with compass software. Protein expression was normalized based on the expression value of GAPDH, and protein development in each sample was measured as a percentage (%) based on 100% of samples treated with 0.1% DMSO carriers, and DC50 (concentration of a compound where 50% protein inhibition is achieved) was calculated from the change in protein expression amount due to compound treatment.

MKN-45 = assay: Cell viability / antiproliferative assay (WST-8), MKN-45; details: read-out: MKN-45 IC50;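 further: MKN-45 is a human gastric cancer line overexpressing c-MET, growth inhibition read as WST-8 formazan absorbance at 450 nm after 2 h dye incubation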
[1] = MKN-45 cells, 72 hours, WST-8, Table 1

SMILES	DC50 (c-MET; Table 2)	IC50 (MKN-45; Homo sapiens, MKN-45, 72 h)	DC50 (c-MET; Table 1)	IC50 (MKN-45; [1])	IC50 (MKN-45; MKN-45 cells, 72 hours, WST-8, Table 2)
Cc1nn(C2CCC(=O)NC2=O)c(=O)c2ccc(N3CCN(CC(=O)N4CCC(COc5cnc(-c6cccc(Cn7nc(-c8cccc(C#N)c8)ccc7=O)c6)nc5)CC4)CC3)cc12 (centres unmarked) [ICT-0001173]	< 100 nM	< 100 nM	–	–	–
N#Cc1cccc(-c2ccc(=O)n(Cc3cccc(-c4ncc(OCC5CCN(CC(=O)NCCCCCc6ccc7c(=O)n(C8CCC(=O)NC8=O)ncc7c6)CC5)cn4)c3)n2)c1 (centres unmarked) [ICT-0001206]	< 100 nM	< 100 nM	–	–	–
Cc1nn(C2CCC(=O)NC2=O)c(=O)c2ccc(NCCOCCOCC(=O)N3CCC(COc4cnc(-c5cccc(Cn6nc(-c7cccc(C#N)c7)ccc6=O)c5)nc4)CC3)cc12 (centres unmarked) [ICT-0001087]	< 100 nM	< 100 nM	–	–	–
Cc1nn(C2CCC(=O)NC2=O)c(=O)c2cc(N3CCN(CCCCC(=O)N4CCC(COc5cnc(-c6cccc(Cn7nc(-c8cccc(C#N)c8)ccc7=O)c6)nc5)CC4)CC3)ccc12 (centres unmarked) [ICT-0001217]	< 100 nM	< 100 nM	–	–	–
Cn1cc(-c2cnc3c(nnn3C[C@@H]3CN(c4ncc(-c5ccc(CN6CCN(C(=O)CN7CCN(c8ccc9c(=O)n(C%10CCC(=O)NC%10=O)ncc9c8)CC7)CC6)cc5)cn4)CCO3)n2)cn1 (some centres unmarked) [ICT-0001109]	–	< 100 nM	< 100 nM	–	–
Cn1cc(-c2cnc3c(nnn3C[C@@H]3CN(c4ncc(-c5ccc(CN6CCN(C(=O)COCCOCCOCCOCCNc7ccc8c(=O)n(C9CCC(=O)NC9=O)ncc8c7)CC6)cc5)cn4)CCO3)n2)cn1 (stereo partly drawn) [ICT-0000939, 3-[6-(15-{4-[(4-{2-[(2S)-2-{[5-(1-methyl-1H-pyrazole-4-yl)-1H-[1,2,3]triazolo[4,5-b]pyrazine-1-yl]methyl}morpholine-4-il]pyrimidine-5-yl}phenyl)methyl]piperazine-1-yl}-15-oxo-4,7,10,13-tetraoxa-1-azpentadecan-1-yl)-1-oxo-1,2-dihydroptalazine-2-yl]piperidin-2,6-dione]	–	–	> 1000 nM	100 to 1000 nM	–
Cc1nn(C2CCC(=O)NC2=O)c(=O)c2ccc(N3CCN(C[C@@H]4CN(C(=O)CN5CCC(COc6cnc(-c7cccc(Cn8nc(-c9cccc(C#N)c9)ccc8=O)c7)nc6)CC5)CCO4)CC3)cc12 (some centres unmarked) [ICT-0001258]	< 100 nM	< 100 nM	–	–	–
Cc1nn(C2CCC(=O)NC2=O)c(=O)c2ccc(N3CCN(C[C@H]4CCN(CC(=O)N5CCC(COc6cnc(-c7cccc(Cn8nc(-c9cccc(C#N)c9)ccc8=O)c7)nc6)CC5)CO4)CC3)cc12 (some centres unmarked) [ICT-0001254]	100 to 1000 nM	–	–	–	< 100 nM
Cc1nn(C2CCC(=O)NC2=O)c(=O)c2ccc(N3CCN(CCC(=O)N4CCC(COc5cnc(-c6cccc(Cn7nc(-c8cccc(C#N)c8)ccc7=O)c6)nc5)CC4)CC3)cc12 (centres unmarked) [ICT-0001174]	< 100 nM	< 100 nM	–	–	–
Cc1nn(C2CCC(=O)NC2=O)c(=O)c2c(NCC(=O)N3CCC(COc4cnc(-c5cccc(Cn6nc(-c7cccc(C#N)c7)ccc6=O)c5)nc4)CC3)cccc12 (centres unmarked) [ICT-0000981]	> 1000 nM	< 100 nM	–	–	–
Cc1nn(C2CCC(=O)NC2=O)c(=O)c2ccc(N3CCN(C4CCN(C(=O)CN5CCC(COc6cnc(-c7cccc(Cn8nc(-c9cccc(C#N)c9)ccc8=O)c7)nc6)CC5)CC4)CC3)cc12 (centres unmarked) [ICT-0001237]	< 100 nM	< 100 nM	–	–	–
Cc1nn(C2CCC(=O)NC2=O)c(=O)c2cc(N3CCC(N4CCN(C(=O)CN5CCC(COc6cnc(-c7cccc(Cn8nc(-c9cccc(C#N)c9)ccc8=O)c7)nc6)CC5)CC4)CC3)ccc12 (centres unmarked) [ICT-0001233, 3-(1-(3-(5-((1-(2-(4-(1-(3-(2,6-dioxopiperidine-3-yl)-1-methyl-4-oxo-3,4-dihydropthalazine-6-yl)piperidine-4-yl)piperazine-1-yl)2-oxoethyl)piperidine-4-il)methoxy)pyrimidine-2-yl)benzyl)6-oxo-1,6-dihydropyridine-3-yl)benzonitrile]	< 100 nM	< 100 nM	–	–	–
Cn1cc(-c2cnc3c(nnn3C[C@@H]3CN(c4ncc(-c5ccc(CN6CCN(C(=O)COCCOCCOCCNc7ccc8c(=O)n(C9CCC(=O)NC9=O)ncc8c7)CC6)cc5)cn4)CCO3)n2)cn1 (stereo partly drawn) [ICT-0000938, 3-[6-(12-{4-[(4-{2-[(2S)-2-{[5-(1-methyl-1H-pyrazole-4-yl)-1H-[1,2,3]triazolo[4,5-b]pyrazine-1-yl]methyl}morpholine-4-day]pyrimidine-5-yl}phenyl)methyl]piperazine-1-yl}-12-oxo-4,7,10-trioxa-1-azadodecane-1-yl)-1-oxo-1,2-dihydroptalazine-2-yl]piperidine-2,6-dione]	–	100 to 1000 nM	> 1000 nM	–	–
Cc1nn(C2CCC(=O)NC2=O)c(=O)c2cc(N3CCN(CC4CCN(C(=O)CN5CCC(COc6cnc(-c7cccc(Cn8nc(-c9cccc(C#N)c9)ccc8=O)c7)nc6)CC5)CC4)CC3)ccc12 (centres unmarked) [ICT-0001195]	< 100 nM	< 100 nM	–	–	–
Cn1cc(-c2cnc3c(nnn3C[C@@H]3CN(c4ncc(-c5ccc(CN6CCN(C(=O)CCCCCCNc7cccc8cnn(C9CCC(=O)NC9=O)c(=O)c78)CC6)cc5)cn4)CCO3)n2)cn1 (stereo partly drawn) [ICT-0000960, 3-{8-[(7-{4-[(4-{2-[(2S)-2-{[5-(1-methyl-1H-pyrazole-4-yl)-1H-[1,2,3]triazolo[4,5-b]pyrazine-1-yl]methyl}morpholine-4-yl]pyrimidine-5-yl}phenyl)methyl]piperazine-1-yl}-7-oxoheptyl)amino]-1-oxo-1,2-dihydrophthalazine-2-yl}piperidine-2,6-dione]	–	< 100 nM	100 to 1000 nM	–	–
Cc1nn(C2CCC(=O)NC2=O)c(=O)c2ccc(NCCCCCC(=O)N3CCC(COc4cnc(-c5cccc(Cn6nc(-c7cccc(C#N)c7)ccc6=O)c5)nc4)CC3)cc12 (centres unmarked) [ICT-0000990]	100 to 1000 nM	100 to 1000 nM	–	–	–
Cc1nn(C2CCC(=O)NC2=O)c(=O)c2cc(N3CCN(C(=O)CCCCN4CCC(COc5cnc(-c6cccc(Cn7nc(-c8cccc(C#N)c8)ccc7=O)c6)nc5)CC4)CC3)ccc12 (centres unmarked) [ICT-0001251]	< 100 nM	< 100 nM	–	–	–
Cn1cc(-c2cnc3c(nnn3C[C@@H]3CN(c4ncc(-c5ccc(CN6CCN(C(=O)CCCCNc7cccc8cnn(C9CCC(=O)NC9=O)c(=O)c78)CC6)cc5)cn4)CCO3)n2)cn1 (stereo partly drawn) [ICT-0000959, 3-{8-[(5-{4-[(4-{2-[(2S)-2-{[5-(1-methyl-1H-pyrazole-4-yl)-1H-[1,2,3]triazolo[4,5-b]pyrazine-1-yl]methyl}morpholine-4-il]pyrimidine-5-yl}phenyl)methyl]piperazine-1-yl}-5-oxopentyl)amino]-1-oxo-1,2-dihydropthalazine-2-yl}piperidine-2,6-dione]	–	–	< 100 nM	< 100 nM	–
Cc1nn(C2CCC(=O)NC2=O)c(=O)c2ccc(N3CCC(CN4CCN(C(=O)CN5CCC(COc6cnc(-c7cccc(Cn8nc(-c9cccc(C#N)c9)ccc8=O)c7)nc6)CC5)CC4)CC3)cc12 (centres unmarked) [ICT-0001236]	< 100 nM	< 100 nM	–	–	–
N#Cc1cccc(-c2ccc(=O)n(Cc3cccc(-c4ncc(OCC5CCN(CCCCC(=O)N6CCN(c7ccc8c(=O)n(C9CCC(=O)NC9=O)ncc8c7)CC6)CC5)cn4)c3)n2)c1 (centres unmarked) [ICT-0001252]	< 100 nM	< 100 nM	–	–	–
Cc1nn(C2CCC(=O)NC2=O)c(=O)c2ccc(NCCOCCOCCOCCOCCC(=O)N3CCC(COc4cnc(-c5cccc(Cn6nc(-c7cccc(C#N)c7)ccc6=O)c5)nc4)CC3)cc12 (centres unmarked) [ICT-0001091]	< 100 nM	< 100 nM	–	–	–
Cc1nn(C2CCC(=O)NC2=O)c(=O)c2ccc(N3CCN(CCCC(=O)N4CCC(COc5cnc(-c6cccc(Cn7nc(-c8cccc(C#N)c8)ccc7=O)c6)nc5)CC4)CC3)cc12 (centres unmarked) [ICT-0001175, 3-(1-(3-(5-((1-(4-(4-(2-(2,6-dioxopiperidine-3-yl)-4-methyl-1-oxo-1,2-dihydropthalazine-6-yl)piperazine-1-yl)butanoyl)piperidine-4-il)methoxy)pyrimidine-2-yl)benzyl)6-oxo-1,6-dihydropyridazine-3-yl)benzonitrile]	< 100 nM	< 100 nM	–	–	–
N#Cc1cccc(-c2ccc(=O)n(Cc3cccc(-c4ncc(OCC5CCN(C(=O)CCCCN6CCN(c7ccc8c(=O)n(C9CCC(=O)NC9=O)ncc8c7)CC6)CC5)cn4)c3)n2)c1 (centres unmarked) [ICT-0001201, 3-(1-{[3-(5-{[1-(5-{4-[2-(2,6-dioxopiperidin-3-yl)-1-oxo-1,2-dihydropetalazine-6-yl]piperazine-1-yl}pentanoyl)piperidine-4-il]methoxy}pyrimidine-2-yl)phenyl]methyl}6-oxo-1,6-dihydropyridazine-3-yl)benzonitrile]	< 100 nM	< 100 nM	–	–	–
N#Cc1cccc(-c2ccc(=O)n(Cc3cccc(-c4ncc(OCC5CCN(C(=O)COCCOCCNc6ccc7c(=O)n(C8CCC(=O)NC8=O)ncc7c6)CC5)cn4)c3)n2)c1 (centres unmarked) [ICT-0000986]	< 100 nM	< 100 nM	–	–	–
N#Cc1cccc(-c2ccc(=O)n(Cc3cccc(-c4ncc(OCC5CCN(C(=O)COCCOCCOCCOCCNc6ccc7c(=O)n(C8CCC(=O)NC8=O)ncc7c6)CC5)cn4)c3)n2)c1 (centres unmarked) [ICT-0000988, 3-(1-{[3-(5-{[1-(14-{[2-(2,6-dioxopiperidin-3-yl)-1-oxo-1,2-dihydroptalazine-6-yl]amino}-3,6,9,12-tetradecanoyl)piperidin-4-yl]methoxy}pyrimidine-2-yl)phenyl]methyl}-6-oxo-1,6-dihydropyridazine-3-yl)benzonitrile]	< 100 nM	100 to 1000 nM	–	–	–
